# Patent publication US20240239775A1, “FXR REGULATOR, PREPARATION METHOD THEREFOR, PHARMACEUTICAL COMPOSITION THEREOF AND USE THEREOF” (QINGDAO RUIJI MEDICAL TECHNOLOGY CO., LTD., priority 2021, published 2024)
# Target: T1, FXR (Homo sapiens, UniProt Q96RI1)
# T1 construct: 5 μL of 20 nM FXR-LBD Complete Coregulator buffer G; purchased ThermoFisher PV4833
# T1 sequence (Q96RI1 262-486 limits assumed): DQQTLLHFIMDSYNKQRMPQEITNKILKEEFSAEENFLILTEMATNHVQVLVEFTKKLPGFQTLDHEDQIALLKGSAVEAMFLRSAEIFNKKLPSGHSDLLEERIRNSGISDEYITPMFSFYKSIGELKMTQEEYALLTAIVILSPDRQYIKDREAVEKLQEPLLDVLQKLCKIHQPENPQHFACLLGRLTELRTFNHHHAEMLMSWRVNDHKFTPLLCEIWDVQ
# Assay: FXR antagonist screening by TR-FRET (LanthaScreen TR-FRET FXR co-activation assay kit)
# Type: biochemical
# Settings: Table 1.2, FXR antagonistic activity; TR-FRET with CDCA; geometric means of at least two independent runs
# Procedure, shortened: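 FXR-LBD (20 nM working solution) mixed with compound, CDCA (200 μM working solution) as agonist, Fluorescein-SRC2-2 and Tb-anti-GST antibody in Coregulator buffer G; 10 h at room temperature. Coactivator recruitment read by TR-FRET, triplicate wells.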
structure (smiles),measurement,value
"O=C(O)c1cc2ccc(S(=O)(=O)N(CCc3ccccc3)c3ccccc3N3CCN(C(=O)c4sccc4Br)CC3)cc2s1 [Example F27-S160, 6-(N-(2-(4-(3-bromothiophene-2-carbonyl)piperazin-1-yl)phenyl)-N-phenethylsulfamoyl)benzo[b]thiophene-2-carboxylic acid]",IC50,0.1 to 10 µM
"O=C(O)c1[nH]c2ccc(S(=O)(=O)N(CCc3ccccc3)c3ccccc3N3CCN(C(=O)c4sccc4Br)CC3)cc2c1Cl [Example F27-S161, 5-(N-(2-(4-(3-bromothiophene-2-carbonyl)piperazin-1-yl)phenyl)-N-phenethylsulfamoyl)-3-chloro-1H-indole-2-carboxylic acid]",IC50,0.1 to 10 µM
"O=C(O)c1cc2cc(S(=O)(=O)N(CCc3ccccc3)c3ccccc3N3CCN(C(=O)c4sccc4Br)CC3)ccc2o1 [Example F27-S162, 5-(N-(2-(4-(3-bromothiophene-2-formyl)piperazin-1-yl)phenyl)-N-phenethylsulfamoyl)benzofuran-2-carboxylic acid]",IC50,0.1 to 10 µM
"Cc1c(C(=O)O)oc2cc(S(=O)(=O)N(CCc3ccccc3)c3ccccc3N3CCN(C(=O)c4sccc4Br)CC3)ccc12 [Example F27-S163, 6-(N-(2-(4-(3-bromothiophene-2-formyl)piperazin-1-yl)phenyl)-N-phenethylsulfamoyl)3-methylbenzofuran-2-carboxylic acid]",IC50,0.1 to 10 µM
"O=C(O)c1cc2ccc(S(=O)(=O)N(CCc3ccccc3)c3ccccc3N3CCN(C(=O)c4sccc4Br)CC3)cc2o1 [Example F27-S164, 6-(N-(2-(4-(3-bromothiophene-2-formyl)piperazin-1-yl)phenyl)-N-phenethylsulfamoyl)benzofuran-2-carboxylic acid]",IC50,0.1 to 10 µM
"COc1ccc(CCN(c2ccccc2N2CCN(C(=O)c3sccc3Br)CC2)S(=O)(=O)c2ccc3sc(C(=O)O)c(C)c3c2)cc1 [Example F27-S165, 5-(N-(2-(4-(3-bromothiophene-2-formyl)piperazin-1-yl)phenyl)-N-(4-methoxyphenethyl)sulfamoyl)3-methylbenzothiophene-2-carboxylic acid]",IC50,0.1 to 10 µM
"Cc1c(C(=O)O)sc2ccc(S(=O)(=O)N(CCc3ccc(Cl)cc3)c3ccccc3N3CCN(C(=O)c4sccc4Br)CC3)cc12 [Example F27-S166, 5-(N-(2-(4-(3-bromothiophene-2-carbonyl)piperazin-1-yl)phenyl)-N-(4-chlorophenylethyl)sulfamoyl)-3-methylbenzothiophene-2-carboxylic]",IC50,0.1 to 10 µM
"Cc1ccc(CCN(c2ccccc2N2CCN(C(=O)c3sccc3Br)CC2)S(=O)(=O)c2ccc3sc(C(=O)O)c(C)c3c2)cc1 [Example F27-S167, 5-(N-(2-(4-(3-bromothiophene-2-carbonyl)piperazin-1-yl)phenyl)-N-(4-methylphenylethyl)sulfamoyl)-3-methylbenzothiophene-2-carboxylic acid]",IC50,0.1 to 10 µM
"Cc1c(C(=O)O)sc2ccc(S(=O)(=O)N(CCc3ccc(C(=O)O)cc3)c3ccccc3N3CCN(C(=O)c4sccc4Br)CC3)cc12 [Example F27-S168, 5-(N-(2-(4-(3-bromothiophene-2-carbonyl)piperazin-1-yl)phenyl)-N-(4-carboxyphenethyl)sulfamoyl)-3-toluenothiophene-2-carboxylic acid]",IC50,0.1 to 10 µM
Cc1c(C(=O)O)sc2ccc(S(=O)(=O)N(CCc3ccc(C#N)cc3)c3ccccc3N3CCN(C(=O)c4sccc4Br)CC3)cc12 [Example F27-S169],IC50,0.1 to 10 µM
"Cc1c(C(=O)O)sc2ccc(S(=O)(=O)N(CCc3ccc(C(F)(F)F)cc3)c3ccccc3N3CCN(C(=O)c4sccc4Br)CC3)cc12 [Example F27-S170, 5-(N-(2-(4-(3-bromothiophene-2-carbonyl)piperazin-1-yl)phenyl)-N-(4-(trifluoromethyl)phenethyl)sulfamoyl)-3-methylbenzothiophene-2-carboxylic acid]",IC50,0.1 to 10 µM
"Cc1c(C(=O)O)sc2ccc(S(=O)(=O)N(CCc3cccc(Cl)c3)c3ccccc3N3CCN(C(=O)c4sccc4Br)CC3)cc12 [Example F27-S172, 5-(N-(2-(4-(3-bromothiophene-2-carbonyl)piperazin-1-yl)phenyl)-N-(3-chlorophenethyl)sulfamoyl)-3-methylbenzothiophene-2-carboxylic acid]",IC50,0.1 to 10 µM
"Cc1c(C(=O)O)sc2ccc(S(=O)(=O)N(CCc3ccccc3Cl)c3ccccc3N3CCN(C(=O)c4sccc4Br)CC3)cc12 [Example F27-S173, 5-(N-(2-(4-(3-bromothiophene-2-carbonyl)piperazin-1-yl)phenyl)-N-(2-chlorophenethyl)sulfamoyl)-3-methylbenzothiophene-2-carboxylic acid]",IC50,0.1 to 10 µM
"COc1ccccc1CCN(c1ccccc1N1CCN(C(=O)c2sccc2Br)CC1)S(=O)(=O)c1ccc2sc(C(=O)O)c(C)c2c1 [Example F27-S174, 5-(N-(2-(4-(3-bromothiophene-2-carbonyl)piperazin-1-yl)phenyl)-N-(2-methoxyphenethyl)sulfamoyl)-3-methylbenzothiophene-2-carboxylic acid]",IC50,0.1 to 10 µM
"Cc1c(C(=O)O)sc2ccc(S(=O)(=O)N(CCc3ccccc3[N+](=O)[O-])c3ccccc3N3CCN(C(=O)c4sccc4Br)CC3)cc12 [Example F27-S175, 5-(N-(2-(4-(3-bromothiophene-2-carbonyl)piperazin-1-yl)phenyl)-N-(2-nitrophenylethyl)sulfamoyl)-3-toluothiophene-2-carboxylic acid]",IC50,0.1 to 10 µM
"Cc1c(C(=O)O)sc2ccc(S(=O)(=O)N(CCCc3ccccc3)c3ccccc3N3CCN(C(=O)c4sccc4Br)CC3)cc12 [Example F27-S176, 5-(N-(2-(4-(3-bromothiophene-2-carbonyl)piperazin-1-yl)phenyl)-N-(3-phenylpropyl)sulfamoyl)-3-methylbenzothiophene-2-carboxylic acid]",IC50,0.1 to 10 µM
"Cc1c(C(=O)O)sc2ccc(S(=O)(=O)Nc3ccccc3N3CCN(C(=O)c4sccc4Br)CC3)cc12 [Example F27-S177, 5-(N-(2-(4-(3-bromothiophene-2-carbonyl)piperazin-1-yl)phenyl)sulfamoyl)-3-toluothiophene-2-carboxylic acid]",IC50,0.1 to 10 µM
"Cc1c(C(N)=O)oc2ccc(S(=O)(=O)N(CCc3ccccc3)c3ccccc3N3CCN(C(=O)c4sccc4Br)CC3)cc12 [Example F27-S178, 5-(N-(2-(4-(3-bromothiophene-2-formyl)piperazin-1-yl)phenyl)-N-phenethylsulfamoyl)3-methylbenzofuran-2-carboxamide]",IC50,0.1 to 10 µM
"Cc1c(C(=O)O)n(C)c2ccc(S(=O)(=O)N(CCc3ccccc3)c3ccccc3N3CCN(C(=O)c4sccc4Br)CC3)cc12 [Example F27-S179, 5-(N-(2-(4-(3-bromothiophene-2-carbonyl)piperazin-1-yl)phenyl)-N-phenethylsulfamoyl)-1,3-dimethyl-1H-indole-2-carboxylic acid]",IC50,0.1 to 10 µM
"Cc1c(C(=O)O)sc2ccc(S(=O)(=O)N(CCC3CCCCC3)c3ccccc3N3CCN(C(=O)c4sccc4Br)CC3)cc12 [Example F27-S180, 5-(N-(2-(4-(3-bromothiophene-2-carbonyl)piperazin-1-yl)phenyl)-N-(2-cyclohexylethyl)sulfamoyl)-3-methylbenzothiophene-2-carboxylic acid]",IC50,0.1 to 10 µM
